# Like-named read-outs stand apart in the source and are kept apart here.
# Experiments:
# Assay type in all cases: cell-based
# [1] = system: FOXM1^A2 mRNA and FOXM1^BC mRNA; experiment: Splicing assay (FOXM1), qPCR of isoform mRNAs; conditions: for EC50: read-out: Splice EC50 (nM) FoxM1 A mRNA increase (exon excluded)
# Outline: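 RT-qPCR read-out after 24 h compound exposure at 37° C., 0.2% DMSO, top dose 10 μM with 4-fold 8-point dilutions, 20,000 cells per well. Copy numbers from plasmid standard curves, PPIA-normalized, expressed as isoform ratio relative to DMSO.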
# [2] = system: IKBKAP^FL mRNA; experiment: IKBKAP splicing assay, qPCR; conditions: 24 hours of incubation
# Protocol: (§1) Various cells lines were treated with the SMSMs described herein. RNA was then isolated, cDNA synthesized, qPCR performed and the levels of IKBKAP targets of the SMSMs were determined.
# (§2) On the day of the experiment, a 96-well plate was seeded with the cell lines of interest. The cells were diluted with full growth media to a concentration of 2.0×10^5 cells/mL and 100 μL of cells were added to each well (20,000 cells per well). The cells were treated with a compound immediately after plating.
# (§3) The compounds were then added to the cell plate using the HP compound dispenser. In the initial experiment, a top concentration of 10 μM and an 8 point 4-fold dilution scheme was used. The stock compounds were made at a concentration of 5 mM, and the DMSO concentration was set to 0.2%. DMSO was used to normalize all the compound-containing wells and the untreated cells.
# (§4) The treated cells were incubated at 37° C. in a 5% CO2 incubator for the desired amount of time. Plates were placed in a plastic bag with a wet paper towel to prevent evaporation.
# (§5) RNA was isolated using the Cells to CT kit (ThermoFisher, AM1728). The cells were washed once with 100 μL cold PBS. 50 μL of lysis buffer was added to each well/tube (49.5 μL lysis buffer+0.5 μL DNase I per well/tube). The lysis reaction was mixed and incubated at room temperature for 5 minutes. 5 μL of stop solution was added directly into each cell lysis reaction and mixed by pipetting up and down 5 times. The plates/tubes were incubated at room temperature for 2 minutes then placed on ice if the cDNA synthesis was to be performed immediately. Otherwise, the plates/tubes were stored at −80° C.
# (§6) cDNA synthesis reactions were then performed. 40 μL RT master mix was added to PCR tubes or plate wells. 10 μL of RNA was added to each tube/well. The RT thermal cycler program was then run and tubes or plate wells were incubated at 37° C. for 1 hour, then at 95° C. for 5 minutes to deactivate the enzyme.
# (§7) The qPCR was performed using a QuantStudio 6 instrument (ThermoFisher) and the following cycling conditions and according to the tables below. All samples and standards were analyzed in triplicate. Cycle 1: 2 minutes at 50° C. Cycle 2: 10 minutes at 95° C. Cycle 3 (repeat 40 times): 15 seconds at 95° C., 1 minute at 60° C.
# (§8) The determined IKBKAP^FL and […] isoform quantities were then used to determine the IKBKAP^FL: IKBKAP^Δ20 ratio at increasing SMSM compound concentrations. The PPIA quantities were used in the normalization to account of cell proliferation effects of the compounds.
# (§9) An assay to measure the IKBKAP^FL mRNA and IKBKAP^Δ20 mRNA simultaneously in cell wells was performed. The RNA values were measured relative to DMSO control and also included a housekeeping gene, PPIA to ensure data was consistent. The mRNA values were measured after 24 hours of incubation with the SMSM compounds.
# [3] = system: IKBKAP^Δ20 mRNA; experiment: IKBKAP splicing assay, qPCR; conditions: 24 hours of incubation
# Protocol: as §1, §2, §3, §4, §5, §6, §7, §8, §9
# [4] = 24 h, MDA-MB-231-luc cells, 24 hours, table does not say EC50 or IC50, read-out: FOXM1
# [5] = 24 h, U-118 cells, 24 hours, table does not say EC50 or IC50, read-out: FOXM1
# [6] = FoxM1 BC mRNA decrease (exon included), read-out: Splice IC50 (nM) FoxM1 BC mRNA decrease (exon included)
# [7] = Homo sapiens, A673, 24 h, A-673 cells, 24 hours, table does not say EC50 or IC50, read-out: FOXM1
# [8] = Homo sapiens, A-375, 24 h, A-375 cells, 24 hours, table does not say EC50 or IC50, read-out: FOXM1
# [9] = Homo sapiens, BXPC-3, 24 h, BxPC-3 cells, 24 hours, table does not say EC50 or IC50, read-out: FOXM1
# [10] = Homo sapiens, Z-138, 24 h, Z-138 cells, 24 hours, table does not say EC50 or IC50, read-out: FOXM1
Compound,"IC50 [1, 4] [nM]","IC50 [1, 5] [nM]","IC50 [1, 6] [nM]","IC50 [1, 7] [nM]","IC50 [1, 8] [nM]","IC50 [1, 9] [nM]","IC50 [1, 10] [nM]",EC50 [1] [nM],EC50 [2] [nM],IC50 [3] [nM],other results
"CN(c1ccc(-c2ccc(-c3cn[nH]c3)cc2O)nn1)[C@@H]1C[C@H]2CC[C@@H](C1)N2 [compound 138, 2-(6-(((1R,3s,5S)-8-azabicyclo[3.2.1]octan-3-yl)(methyl)amino)pyridazin-3-yl)-5-(1H-pyrazol-4-yl)phenol]",11 to 100,11 to 100,10 to 100,11 to 100,1 to 10,101 to 200,11 to 100,10 to 100,101 to 350,201 to 1000,"IC50 ([1]; Homo sapiens, DU-145, 24 h, DU-145 cells, 24 hours, table does not say EC50 or IC50, read-out: FOXM1): 11 to 100 nM; IC50 ([1]; Homo sapiens, Daoy, 24 h, Daoy cells, 24 hours, table does not say EC50 or IC50, read-out: FOXM1): 11 to 100 nM; IC50 ([1]; Homo sapiens, G-401, 24 h, G-401 cells, 24 hours, table does not say EC50 or IC50, read-out: FOXM1): 101 to 200 nM; IC50 ([1]; Homo sapiens, SH-SY5Y, 24 h, SH-SY5Y cells, 24 hours, table does not say EC50 or IC50, read-out: FOXM1): 11 to 100 nM; IC50 ([1]; Homo sapiens, TT, 24 h, T.T cells, 24 hours, table does not say EC50 or IC50, read-out: FOXM1): 11 to 100 nM"
"CN(c1ccc(-c2ccc(-c3cn[nH]c3)cc2O)nn1)[C@@H]1C[C@H]2CCC[C@@H](C1)N2 [compound 160, 2-(6-(((1R,3s,5S)-9-azabicyclo[3.3.1]nonan-3-yl)(methyl)amino)pyridazin-3-yl)-5-(1H-pyrazol-4-yl)phenol]",11 to 100,1 to 10,< 10,1 to 10,< 1,11 to 100,1 to 10,< 10,< 100,< 200,–
"CN(c1ccc(-c2ccc(-c3cn[nH]c3)cc2O)nn1)[C@H]1C[C@]2(C)CC[C@](C)(C1)N2 [compound 151, 2-(6-(((1R,3s,5S)-1,5-dimethyl-8-azabicyclo[3.2.1]octan-3-yl)(methyl)amino)pyridazin-3-yl)-5-(1H-pyrazol-4-yl)phenol]",–,–,< 10,1 to 10,1 to 10,–,–,< 10,–,–,"IC50 ([1]; Homo sapiens, Hep3B, 24 h, Hep-3B cells, 24 hours, table does not say EC50 or IC50, read-out: FOXM1): 101 to 200 nM; IC50 ([1]; Homo sapiens, K562, 24 h, K-562 cells, 24 hours, table does not say EC50 or IC50, read-out: FOXM1): 11 to 100 nM; IC50 ([1]; Homo sapiens, MDA-MB-468, 24 h, MDA-MB-468 cells, 24 hours, table does not say EC50 or IC50, read-out: FOXM1): 11 to 100 nM; IC50 ([1]; Homo sapiens, NCI-H358, 24 h, NCI-H358 cells, 24 hours, table does not say EC50 or IC50, read-out: FOXM1): 1 to 10 nM; IC50 ([1]; Homo sapiens, PANC-1, 24 h, PANC-1 cells, 24 hours, table does not say EC50 or IC50, read-out: FOXM1): 101 to 200 nM; IC50 ([1]; Homo sapiens, PC-3, 24 h, PC-3 cells, 24 hours, table does not say EC50 or IC50, read-out: FOXM1): 11 to 100 nM; IC50 ([1]; Homo sapiens, U-87 MG, 24 h, U-87MG cells, 24 hours, table does not say EC50 or IC50, read-out: FOXM1): 11 to 100 nM"
